BindingDB's records for doi:10.1016/s0960-894x(01)00003-8 (Shionogi, 2001)

test: Concentration required to inhibit human Cytosolic phospholipase A2

First: CCCCC/C=C\C/C=C\C/C=C\C/C=C\CCCC(=O)C(F)(F)F [Arachidonyltrifluoromethane]
Second: O=C1N=C(O)SC1=Cc1ccc(C(=O)NC[C@@H]2C[C@@H](S(c3ccccc3)(c3ccccc3)c3ccccc3)CN2C(=O)c2ccccc2C(=O)c2ccc(F)cc2F)cc1 [N-[(2S,4R)-1-[2-(2,4-Difluoro-benzoyl)-benzoyl]-4-(triphenyl-lambda*4*-sulfanyl)-pyrrolidin-2-ylmethyl]-4-[2,4-dioxo-thiazolidin-(5Z)-ylidenemethyl]-benzamide]
The IC50 of the first is 100-fold higher: 420 nM for the first, 4.2 nM for the second.

In the case of `O=C1N=C(O)SC1=Cc1ccc(C(=O)NC[C@@H]2C[C@@H](OCc3ccccc3-c3ccccc3)CN2C(=O)c2ccccc2C(=O)c2ccccc2)cc1` [N-[(2S,4R)-1-(2-Benzoyl-benzoyl)-4-(biphenyl-2-ylmethoxy)-pyrrolidin-2-ylmethyl]-4-[2,4-dioxo-thiazolidin-(5Z)-ylidenemethyl]-benzamide], the IC50 is reported as 165 nM.
